Laboratory results as given in US11337971B2, “Dopamine D3 receptor selective antagonists/partial agonists and uses thereof” (THE UNITED STATES OF AMERICA, AS REPRESENTED BY THE …, priority 2018, dated 2022).
“Also recorded” adds a separate entry of the source. Read-outs that look alike come from different tables or passages of the source.

What was measured:
human D2R = human D2R (Homo sapiens (Human), UniProt P14416); experiment: Radioligand competition binding, [3H]N-methylspiperone, HEK293 membranes expressing human D2R; settings: read-out: D2R Ki ± SEM
Summary of the method: (§1)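 HEK293 membranes (10 μg protein) incubated 1 h at room temperature in EBSS with 0.2 mM sodium metabisulfite, 0.4 nM [3H]N-methylspiperone and compound (10 μM to 10 pM, triplicate). Nonspecific binding defined with 10 μM butaclamol; GF/B filtration.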

5-HT1A [1] = biological target: T1, 5-HT1A (Homo sapiens (Human), UniProt P08908); experiment: 5-HT1A [3H]-8-OH-DPAT binding; settings: Table 3b; read-out: 5-HT1A [3H]-8-OH-DPAT Ki ± SEM
5-HT2A = 5-HT2A (Homo sapiens (Human), UniProt P28223); experiment: 5-HT2A [125I]DOI binding; settings: Table 3b; read-out: 5-HT2A [125I]DOI Ki ± SEM
5-HT2C = 5-HT2C (Homo sapiens (Human), UniProt P28335); experiment: 5-HT2C [125I]DOI binding; settings: Table 3b; read-out: 5-HT2C [125I]DOI Ki ± SEM
5-HT1A [2] = biological target: T1, 5-HT1A; experiment: 5-HT1A [35S]GTPγS binding functional assay; format: biochemical; settings: Table 3b; read-out: 5-HT1A [35S]GTPγS binding Agonist EC50 ± SEM
in vivo = experiment: in vivo; parameters: species or system rat; settings: rat, in vivo, po, 10 mg/kg; for AUC(0-t) / Cmax: male, Long-Evans
Description: Male Long-Evans rats with body weights ˜250 grams (Charles River Laboratories, Raleigh, N.C., USA) were used in this study. […] Food and water were available ad libitum throughout the experiments. All experimental procedures were conducted in accordance with the Guide for the Care and Use of Laboratory Animals and were approved by the Animal Care and Use Committee of the National Institute on Drug Abuse of the U.S. National Institutes of Health.
Experimental (oral gavage) procedures: The animals were gently restrained (grasp the animal by the loose skin of the neck and back) to immobilize the head but not such that the animals vocalize or show other signs of distress. Maintained the animal in an upright (vertical) position and passed the gavage needle (19-gauge) along the side of the mouth. Following the roof of the mouth, advanced the needle into the esophagus and toward the stomach. After the needle was passed to the correct length, the compound was injected. Then, the animals were deeply anesthetized with 100 mg/kg pentobarbital (i.p.), and then blood (˜1 ml) was obtained via cardiac puncture and brain was dissected at different time points (15 min, 30 min, 60 min, 2 h, 4 h, and 8 h, n=3 rats per time point) after oral drug administration.
These solutions were stored at −20° C. Losartan (IS) was dissolved in DMSO at 10 mM concentration that was further diluted in acetonitrile to obtain a final concentration of 500 nM and the solutions were stored at −20° C.
Standard Curve and Quality Control (QC) Sample Preparation: Standard curve plasma samples were prepared using naïve rat plasma, by serial dilution of the stock solution, with 8 standards and 4 QCs, ranging from 10-50,000 pmol/mL.
Standard curve brain samples were prepared using naïve rat brain. The tissue was homogenized in acetonitrile (Dilution Factor; DF=3), crushed, and centrifuged at 10,000 rpm for 10 minutes. The resulting supernatant was used as the standard curve matrix. The standard curve was subsequently prepared by serial dilution of the stock solution, with 7 standards and 4 QCs, ranging from 30-50000 pmol/mL.
Extraction Procedure: Test compounds were extracted from plasma samples by protein precipitation using acetonitrile. Compounds were extracted from brain samples by placing weighed tissue into 2 times w/v of acetonitrile (DF=3), crushed, centrifuged at 10,000 rpm for 10 minutes, and the resultant supernatant was used as the sample solution. Briefly standards, QCs, and samples (25 μL) were mixed with 100 μL acetonitrile containing 0.5 μM Losartan (internal standard; IS) in low retention microcentrifuge tubes. The mixture was vortexed for 1 min and centrifuged at 10,000 rpm for 10 min at 5° C. 50 μL of supernatant was transferred to a 250 μL polypropylene autosampler vials and mixed with 50 μL water, and sealed with a Teflon cap. A volume of 3 μL was injected onto the ultra-performance liquid chromatography (UPLC) instrument for quantitative analysis using a temperature-controlled autosampler operating at 10° C.
Calibration curves for all test compounds were computed using the ratio of the peak area of analyte to the internal standard by using a quadratic regression with 1/× weighting. The parameters of each calibration curve were used to back-calculate concentrations and to obtain values for the QC samples and unknown samples by interpolation.

human D3R = human D3R (Homo sapiens (Human), UniProt P35462); experiment: Radioligand competition binding, [3H]N-methylspiperone, HEK293 membranes expressing human D3R; settings: for Ki: read-out: D3R Ki ± SEM; for D2/D3: ratio of Ki values
Summary of the method: as §1

human dopamine D3R = human dopamine D3R (Homo sapiens (Human), UniProt P35462); experiment: D3R mitogenesis assay: stimulation or inhibition of quinpirole-stimulated mitogenesis in CHO cells; format: cell-based
[3] = Phase I metabolic stability in rat liver microsomes; format: in vitro ADME; settings: phase I metabolic stability in rat liver microsomes
Text: Rat Liver Microsome Metabolic Stability: Test compounds including 3-F analogues (C4a, C4b, C5a, C5b) and 29, 19 as well as the R-, S-enantiomers of C4a, C5a, 29 and 19 were screened for phase I metabolic stability in rat liver microsomes.

rhesus monkeys = experiment: Thermal tail withdrawal model of oxycodone antinociception in rhesus monkeys; format: in vivo, rhesus monkey; settings: FIG. 6B
Male Long-Evans rats [4] = experiment: Hot plate test of oxycodone-induced antinociceptive response in rats; format: in vivo, rat; settings: oxycodone in vehicle pretreated group
Description: Nociceptive tests were performed using a hot plate device (Model 39, IITC Life Science Inc., Woodland Hills, Calif., USA). The rat was put inside a transparent cage on the hot plate (52±0.2° C.). When thermal nociceptive signs such as licking, stomping the hind paw, or jumping from the plate appeared, the rat was immediately removed from the cage. […] The cut-off time for the test was 60 s to avoid tissue damage.
These experiments involved 8 groups of rats (n=8-9/group) in 2 series of repeated testing: 4 groups were used to test the effects of compound (±)-29 pretreatment on the time course of antinociception induced by oxycodone at a single dose, and another 4 groups were used to test the effects of compound (±)-29 pretreatment on the antinociception induced by various oxycodone doses. Each rat was first habituated to the testing environment for 1 h, followed by placement on the hot plate without treatment to obtain baseline response latencies. The groups in the time course test received baseline testing. Then, group 1 was pretreated with vehicle, and the other 3 groups were pretreated with a dose of compound (±)-29 (5, 15 or 25 mg/kg, i.p.). Fifteen min following the pretreatment, each rat was challenged with a saline injection (1 ml/kg) and, 30 min later, tested for the second time on the hot plate. On the next day, each group received the same pretreatment as on day 1, but challenged with oxycodone (2 mg/kg, i.p.), and each rat was then tested again at 30-, 60- and 120-min following oxycodone challenge. […] Data were calculated as % of maximum percentage effect (% MPE) using the formula: (treatment value−basal value)/(cutoff value−basal value)×100.
Methods: Compound (±)-29 was administered 15 minutes before saline or oxycodone challenge at 5 mg/kg, 15 mg/kg, and 25 mg/kg. […] The rat was then immediately removed from the hot plate and the time latency was recorded.

Male Long-Evans rats [5] = settings: Rice et al, 2012; cited from earlier work
[6] = system: opioid-induced conditioned place preference; settings: Ashby et al, 2003; cited from earlier work
[7] = Table 1B, [3H]-N-methylspiperone competition, D2LR, 96-well plates

Sequence of 5-HT2A (P28223 whole entry, species assumed): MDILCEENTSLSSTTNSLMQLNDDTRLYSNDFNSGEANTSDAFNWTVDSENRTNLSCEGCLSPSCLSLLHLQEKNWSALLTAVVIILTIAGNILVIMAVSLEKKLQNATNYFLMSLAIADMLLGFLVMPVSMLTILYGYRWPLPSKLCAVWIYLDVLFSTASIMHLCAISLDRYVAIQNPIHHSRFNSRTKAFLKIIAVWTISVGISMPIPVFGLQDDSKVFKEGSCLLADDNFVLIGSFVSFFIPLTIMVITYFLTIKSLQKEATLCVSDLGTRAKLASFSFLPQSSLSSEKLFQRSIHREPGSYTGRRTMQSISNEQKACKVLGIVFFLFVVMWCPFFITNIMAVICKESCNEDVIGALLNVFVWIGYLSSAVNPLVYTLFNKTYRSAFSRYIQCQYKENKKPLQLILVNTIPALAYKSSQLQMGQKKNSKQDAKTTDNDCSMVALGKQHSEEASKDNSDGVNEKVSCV
Sequence of human D2R (P14416 whole entry): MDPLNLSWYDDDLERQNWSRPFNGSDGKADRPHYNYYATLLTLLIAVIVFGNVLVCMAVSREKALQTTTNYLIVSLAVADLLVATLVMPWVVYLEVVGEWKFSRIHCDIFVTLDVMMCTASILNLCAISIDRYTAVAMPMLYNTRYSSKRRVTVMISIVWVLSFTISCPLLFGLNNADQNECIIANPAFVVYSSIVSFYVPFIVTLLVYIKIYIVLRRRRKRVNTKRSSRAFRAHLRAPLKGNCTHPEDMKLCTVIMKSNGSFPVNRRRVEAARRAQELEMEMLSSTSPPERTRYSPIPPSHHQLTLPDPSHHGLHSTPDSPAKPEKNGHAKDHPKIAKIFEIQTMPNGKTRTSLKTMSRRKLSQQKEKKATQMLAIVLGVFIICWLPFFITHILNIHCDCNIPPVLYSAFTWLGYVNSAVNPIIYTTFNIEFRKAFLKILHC
Sequence of human D3R (P35462 whole entry): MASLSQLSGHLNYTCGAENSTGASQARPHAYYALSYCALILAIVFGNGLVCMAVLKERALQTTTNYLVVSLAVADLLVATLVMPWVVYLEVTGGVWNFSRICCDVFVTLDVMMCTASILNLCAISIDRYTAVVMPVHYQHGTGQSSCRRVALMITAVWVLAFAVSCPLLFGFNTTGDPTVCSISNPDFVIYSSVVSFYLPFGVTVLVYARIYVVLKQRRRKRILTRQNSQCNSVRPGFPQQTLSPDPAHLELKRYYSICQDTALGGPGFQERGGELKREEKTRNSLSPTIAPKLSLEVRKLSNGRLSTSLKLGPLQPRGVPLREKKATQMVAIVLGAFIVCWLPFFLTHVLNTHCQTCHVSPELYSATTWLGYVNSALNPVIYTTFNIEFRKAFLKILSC
Sequence of 5-HT2C (P28335 33-458, species assumed): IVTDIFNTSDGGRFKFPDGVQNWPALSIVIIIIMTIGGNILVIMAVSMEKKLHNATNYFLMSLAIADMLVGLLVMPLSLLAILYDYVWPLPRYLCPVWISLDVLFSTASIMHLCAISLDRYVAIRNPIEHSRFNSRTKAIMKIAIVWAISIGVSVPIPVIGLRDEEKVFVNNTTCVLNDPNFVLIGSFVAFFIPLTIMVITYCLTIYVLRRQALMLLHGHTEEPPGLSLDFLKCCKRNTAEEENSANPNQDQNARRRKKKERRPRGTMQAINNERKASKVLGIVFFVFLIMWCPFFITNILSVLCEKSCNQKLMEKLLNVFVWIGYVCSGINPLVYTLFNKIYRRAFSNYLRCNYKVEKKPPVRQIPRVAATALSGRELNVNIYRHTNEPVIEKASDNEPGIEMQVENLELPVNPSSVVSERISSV
T1 sequence (P08908 whole entry, species assumed): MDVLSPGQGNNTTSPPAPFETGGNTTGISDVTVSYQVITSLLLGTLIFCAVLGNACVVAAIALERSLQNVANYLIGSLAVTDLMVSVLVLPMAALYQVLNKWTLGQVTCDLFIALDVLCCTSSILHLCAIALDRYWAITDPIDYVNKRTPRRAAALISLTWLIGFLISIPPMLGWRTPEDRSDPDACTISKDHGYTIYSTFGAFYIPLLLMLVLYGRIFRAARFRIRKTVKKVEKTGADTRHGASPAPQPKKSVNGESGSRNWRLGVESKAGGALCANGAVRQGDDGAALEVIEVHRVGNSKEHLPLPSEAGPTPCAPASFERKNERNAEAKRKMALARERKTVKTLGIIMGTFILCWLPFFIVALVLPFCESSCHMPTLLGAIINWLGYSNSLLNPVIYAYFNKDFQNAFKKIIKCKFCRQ
Sequence of human dopamine D3R (P35462 whole entry): as the sequence (P35462 whole entry) above

Row | SMILES | Ki (human D2R; [7]) [nM] | Ki (human D2R; Table 1C) [nM] | Ki (5-HT1A [1]) [nM] | Ki (5-HT2A) [nM] | Ki (5-HT2C) [nM] | EC50 (5-HT1A [2]) [nM] | AUC(0-t) (in vivo) [µM·h] | Cmax (in vivo) [nM] | brain exposure (AUC0-t) (in vivo) [pmol·h/g] | brain penetration (in vivo) | other results
1 | CCc1cccc(N2CCN(C[C@@H](O)CCNC(=O)c3cc4ccccc4[nH]3)CC2)c1Cl [(S)-19, (S)-N-(4-(4-(2-chloro-3-ethylphenyl)piperazin-1-yl)-3-hydroxybutyl)-1H-indole-2-carboxamide] | 200 ± 57.9 | 219 ± 66.2 | 131 ± 12 | 940 ± 130 | 1110 ± 360 | 2060 ± 580 | 2.68 ± 0.208 | 601 ± 108 | 16665 ± 1205 | highly brain penetrable | 
2 | CCc1cccc(N2CCN(CC(F)CCNC(=O)c3cc4ccccc4o3)CC2)c1Cl (racemic) [Compound C5b, N-(4-(4-(2-chloro-3-ethylphenyl)piperazin-1-yl)-3-fluorobutyl)benzofuran-2-carboxamide] | 295 ± 30.1 | 328 ± 33.5 | 117 ± 14 | 336 ± 19 | 464 ± 36 | 351 ± 84 |  |  |  |  | Ki (human D3R; Table 1B, [3H]-N-methylspiperone competition, 96-well plates): 2.09 ± 0.484 nM; D2/D3 (human D3R; Table 1B): 141; D2/D3 (human D3R; Table 1C): 134; Ki (human D3R; Table 1C): 2.45 ± 0.51 nM; IC50 (human dopamine D3R; Table 2b, inhibition of quinpirole-stimulated mitogenesis, read-out: Antagonist IC50 ± S.E.M.): 450 ± 160 nM; % intact/parent remaining [3]: 34%
3 | O=C1CC[C@@]2(O)[C@H]3Cc4ccc(O)c5c4[C@@]2(CCN3CC2CC2)[C@H]1O5 [naltrexone, reference compound] |  |  |  |  |  |  |  |  |  |  | effect on oxycodone antinociception (rhesus monkeys): deleterious effects on oxycodone antinociception
4 | COc1ccc2c3c1O[C@H]1C(=O)CC[C@@]4(O)[C@@H](C2)N(C)CC[C@]314 [Oxycodone, reference compound] |  |  |  |  |  |  |  |  |  |  | % MPE, hot plate (Male Long-Evans rats [4]): significantly increased % MPE; also recorded: dose-dependently increased MPE %
5 | CCc1cccc(N2CCN(C[C@H](O)CCNC(=O)c3cc4ccccc4[nH]3)CC2)c1Cl [(R)-19, (R)-N-(4-(4-(2-chloro-3-ethylphenyl)piperazin-1-yl)-3-hydroxybutyl)-1H-indole-2-carboxamide] | 68.1 ± 12.3 | 75.8 ± 13.7 | 248 ± 18 | 21.3 ± 6.6 | 50 ± 13 | 1050 ± 260 | 1.99 ± 0.279 | 306 ± 113 | 21608 ± 1411 | highly brain penetrable | D3R functional efficacy (antagonist / partial agonist) (human dopamine D3R; quinpirole-stimulated mitogenesis in CHO cells): D3R antagonists
6 | N#Cc1ccc2c(c1)CCN(CCC1CCC(NC(=O)c3ccnc4ccccc34)CC1)C2 (stereo not shown) [SB-277011A] |  |  |  |  |  |  |  |  |  |  | CPA induced by naloxone-precipitated withdrawal (Male Long-Evans rats [5]): significantly blocked CPA induced by naloxone-precipitated withdrawal; opioid-induced conditioned place preference [6]: significantly inhibiting opioid-induced conditioned place preference
